For test [1], the target named is T1, GST tagged LXRbeta LBD (ligand binding domain) (Homo sapiens, UniProt P55055).
T1 construct: purchased Invitrogen pv4658.pps
T1 sequence (P55055 222-460 limits assumed): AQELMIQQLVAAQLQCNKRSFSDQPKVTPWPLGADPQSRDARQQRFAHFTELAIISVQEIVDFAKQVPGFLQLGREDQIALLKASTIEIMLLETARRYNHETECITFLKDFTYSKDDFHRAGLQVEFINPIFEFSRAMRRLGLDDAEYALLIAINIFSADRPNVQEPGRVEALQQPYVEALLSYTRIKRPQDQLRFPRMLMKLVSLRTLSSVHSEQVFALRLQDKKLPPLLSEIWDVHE
The test can be described thus: LanthaScreen TR-FRET Liver X Receptor Coactivator Assay, LXR beta-LBD (co-activator recruitment; IP and % Emax relative to T0901317). The format is biochemical. Particulars: for EC50: Inflection Point of co-activator recruitment, LXR beta-LBD, TR-FRET; for Emax: efficacy at max dose in relation to reference T0901317, LXR beta-LBD, read-out: LXR beta actiivty at max dose (%). Summed up:
(§1)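 LXR LBD protein was added to test compounds, then a mix of fluorescein-labelled coactivator peptide and terbium anti-GST antibody. After incubation at room temperature, TR-FRET was read. Inflection point and Emax were derived relative to the reference dual agonist T0901317.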
On the technique in general: In TR-FRET formats the signal depends on donor and acceptor labels being close together.

In test [2] the target is T2, GST tagged LXRalpha LBD (ligand binding domain) (Homo sapiens, UniProt Q13133).
T2 construct: purchased Invitrogen pv4655
T2 sequence (Q13133 209-447 limits assumed): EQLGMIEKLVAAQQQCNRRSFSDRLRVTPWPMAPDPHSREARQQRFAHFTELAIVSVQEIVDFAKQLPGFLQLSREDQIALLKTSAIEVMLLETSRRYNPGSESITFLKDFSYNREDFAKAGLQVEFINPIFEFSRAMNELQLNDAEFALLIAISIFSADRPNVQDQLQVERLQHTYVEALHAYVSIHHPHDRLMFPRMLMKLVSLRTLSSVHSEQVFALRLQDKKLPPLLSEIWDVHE
The test can be described thus: LanthaScreen TR-FRET Liver X Receptor Coactivator Assay, LXR alpha-LBD (co-activator recruitment; IP and % Emax relative to T0901317). The format is biochemical. Particulars: for LXR alpha IP (nM) / EC50: Inflection Point of co-activator recruitment, LXR alpha-LBD, TR-FRET; for Emax: efficacy at max dose in relation to reference T0901317, LXR alpha-LBD, read-out: LXR alpha actiivty at max dose (%). The method in brief: as §1

For orientation: EC50 means the concentration giving half of the maximal effect. A high value points to a need for much substance.

Consider `CCOc1cccc([C@@](O)(C(=O)N(C)CCCC2CCN(c3ccc(C(=O)N(C)C)c(Cl)c3)CC2)C(F)(F)F)c1` [Example 4-2, (R)-2-chloro-4-(4-(3-(2-(3-ethoxyphenyl)-3,3,3-trifluoro-2-hydroxy-N-methylpropanamido)propyl)piperidin-1-yl)-N,N-dimethylbenzamide], for which, in test [1], the EC50 worked out at 217 nM and the Emax is 49%. In test [2], the “LXR alpha IP (nM)” value is reported as “No IP” and the Emax is 0%.
The like results for `CN(C)C(=O)c1ccc(N2CCC(CCCN(C)C(=O)[C@](O)(c3cc(Cl)cc(Cl)c3)C(F)(F)F)CC2)nc1Cl` [Example 1-37, (R)-2-chloro-6-(4-(3-(2-(3,5-dichlorophenyl)-3,3,3-trifluoro-2-hydroxy-N-methylpropanamido)propyl)piperidin-1-yl)-N,N-dimethylnicotinamide] were, in that order, 35 nM, 44%, “No IP” and 0%.
For `CN(C)C(=O)c1ccc(N2CCC(CCCN(C)C(=O)[C@@](O)(c3ccccc3)C3CCC3)CC2)nc1Cl` [Example 1-23, (S)-2-chloro-6-(4-(3-(2-cyclobutyl-2-hydroxy-N-methyl-2-phenylacetamido)propyl)piperidin-1-yl)-N,N-dimethylnicotinamide], in test [1], the EC50 was 64 nM and the Emax worked out at 90%. For the same compound, in test [2], the EC50 worked out at 1760 nM and the Emax is 39%.
With `COc1cccc([C@@](O)(C(=O)N(C)CCCC2(F)CCN(c3ccc(C(=O)N(C)C)c(Cl)n3)CC2)C(F)(F)F)c1` [Example 12-3, (R)-2-chloro-6-(4-fluoro-4-(3-(3,3,3-trifluoro-2-hydroxy-2-(3-methoxyphenyl)-N-methylpropanamido)propyl)piperidin-1-yl)-N,N-dimethylnicotinamide], in test [1], the EC50 stood at 151 nM and the Emax came out at 58%. Moreover, in test [2], the “LXR alpha IP (nM)” value was “No IP” and the Emax amounted to 12%.
The like results for `CN(C)C(=O)c1ccc(N2CCC(C[C@H]3C[C@H]3CN(C)C(=O)[C@](O)(c3ccccc3)C(F)(F)F)CC2)nc1Cl` [Example 18-1, 2-chloro-N,N-dimethyl-6-(4-(((1S,2R)-2-(((R)-3,3,3-trifluoro-2-hydroxy-N-methyl-2-phenylpropanamido)methyl)cyclopropyl)methyl)piperidin-1-yl)nicotinamide] were, in that order, 131 nM, 56%, “No IP” and 12%.
The like results for `COc1cccc([C@@](O)(C(=O)NC[C@@H]2C[C@@H]2C2CCN(c3ccc(C(=O)N(C)C)c(Cl)n3)CC2)C(F)(F)F)c1` [Example 15-10, 2-chloro-N,N-dimethyl-6-(4-((1R,2R)-2-(((R)-3,3,3-trifluoro-2-hydroxy-2-(3-methoxyphenyl)propanamido)methyl)cyclopropyl)piperidin-1-yl)nicotinamide] were, in that order, 442 nM, 38%, “No IP” and 4%.
The like results for `COc1cccc([C@@](O)(C(=O)N(C)CCC2CC3(CCN(c4ccc(C(=O)NC5CC5)c(Cl)n4)CC3)C2)C(F)(F)F)c1` [Example 13-3, 2-chloro-N-cyclopropyl-6-(2-(2-((R)-3,3,3-trifluoro-2-hydroxy-2-(3-methoxyphenyl)-N-methylpropanamido)ethyl)-7-azaspiro[3.5]nonan-7-yl)nicotinamide] were, in that order, 654 nM, 35%, “No IP” and 1%.
Turning to `CN(C)C(=O)c1ccc(N2CCC(CCCNC(=O)[C@@](O)(c3ccccc3)C(F)(F)F)CC2)nc1Cl` [Example 5-9, (S)-2-chloro-N,N-dimethyl-6-(4-(3-(3,3,3-trifluoro-2-hydroxy-2-phenylpropanamido)propyl)piperidin-1-yl) nicotinamide], in test [1], a half-maximal response (EC50) required 165 nM and the Emax was 101%. Moreover, in test [2], the EC50 is 2280 nM and the Emax stood at 9%.
As for `CN(C)C(=O)c1ccc(N2CCC([C@H]3C[C@H]3CN(C)C(=O)[C@](O)(c3cccc(C4CC4)c3)C(F)(F)F)CC2)nc1Cl` [Example 15-5, 2-chloro-6-(4-((1R,2R)-2-(((R)-2-(3-cyclopropylphenyl)-3,3,3-trifluoro-2-hydroxy-N-methylpropanamido)methyl)cyclopropyl)piperidin-1-yl)-N,N-dimethylnicotinamide], in test [1], the EC50 amounted to 16 nM and the Emax came to 75%. Besides, in test [2], the “LXR alpha IP (nM)” value is listed as “No IP” and the Emax is 18%.
Regarding `CN(C)C(=O)c1ccc(N2CCC([C@H]3C[C@H]3CN(C)C(=O)[C@](O)(c3cccc(OC(F)(F)F)c3)C(F)(F)F)CC2)nc1Cl` [Example 15-4, 2-chloro-N,N-dimethyl-6-(4-((1R,2R)-2-(((R)-3,3,3-trifluoro-2-hydroxy-N-methyl-2-(3-(trifluoromethoxy)phenyl)propanamido)methyl)cyclopropyl)piperidin-1-yl)nicotinamide], in test [1], the EC50 was found to be 23 nM and the Emax is 50%. In addition, in test [2], it took 623 nM to reach a half-maximal effect (EC50) and the Emax was 15%.
The like results for `CN(C)C(=O)c1ccc(N2CCC(CCCNC(=O)C3(c4ccccc4)CCCC3)CC2)nc1Cl` [Example 5-15, 2-chloro-N,N-dimethyl-6-(4-(3-(1-phenylcyclopentane-carboxamido)propyl)piperidin-1-yl)nicotinamide] were, in that order, 215 nM, 83%, 2730 nM and 22%.

The values above are taken from patent publication US10961215B2, “N-aryl and N-heteroaryl piperidine derivatives as liver X receptor beta agonists, compositions, and their use” (Merck Sharp & Dohme Corp., priority 2016, dated 2021).
